Test results: patent US10407712B2, “Methods, compositions and kits for high throughput kinase activity screening using mass spectrometry and stable isotopes” (President and Fellows of Harvard College, priority 2008, dated 2019)

Columns and labels:
[1] = tested on: HEK293 cell lysates; test: Single-reaction 90-substrate KAYAK assay, HEK293 lysates with or without insulin; assay type: biochemical, human; conditions: 5 μM each peptide, HEK293 lysate
Procedure: For stimulation of HEK293 cells or HeLa lines, cells were treated with insulin (100 nM; 10-30 min) EGF (50 ng/ml; 10 min) or phorbol 12-myristate 13-acetate (PMA; 50 or 100 ng/ml; 10 -30 min) at 37° C. for the indicated times after overnight serum-starvation.
Alternatively, cells were washed with PBS once and lysed with ice-cold lysis buffer, 10 mM potassium phosphate, pH 7.0, containing 0.5% NP-40, 0.1% Brij 35, 0.1% deoxycholic acid, 1 mM ethylenediaminetetraacetic acid (EDTA), 5 mM ethylene glycol tetraacetic acid (EGTA), 10 mM MgCl2, 50 mM β-glycerophosphate, 1 mM Na3VO4, 2 mM dithiothreitol (DTT) and protease inhibitor cocktail (Complete, Roche Applied Science, Indianapolis, Ind.). Homogenates were centrifuged at 10,000 rpm for 15 min at 4° C., and the supernatant was used as lysate. Protein concentration was quantified by a modified Bradford assay (Pierce).
(§1) Peptides were synthesized, purified and quantified as described in Yu et al. 2009 Proc Natl Acad Sci USA 106: 11606-11611, hereby incorporated by reference herein in its entirety. Each substrate peptide (250 pmol) was mixed to a final concentration of 5 μM in the 50 μL reaction mixture. Alternatively, reactions were performed using 6 μg cell lysate aliquotes mixed to a final volume of 20 μl. Cell lysate or other kinase source was added to the substrate mixture in 25 mM Tris-Cl, pH 7.5, containing 5 mM ATP, 7.5 mM MgCl2, 0.2 mM EGTA, 7.5 mM β-glycerophosphate, 0.1 mM Na3VO4, and 0.1 mM DTT. The reaction was incubated at 25° C. for 60 min and then terminated by the addition of 100 μl of 1% trifluoroacetic acid (TFA) containing a known amount of an internal standard (typically 20 pmol). Alternatively, the reaction was incubated at 20° C. for 45 min before termination with TFA.
Internal standard heavy peptides (5 pmol each) were added as a mixture to the terminated reactions followed by desalting with a solid phase extraction cartridge (SepPak tC18 (50 mg), Waters, Milford, Mass.). Phosphopeptides were enriched as described (Villen et al. 2008 Nat Protoc 3: 1630-1638). […]
For KAYAK analyses, phosphopeptides were dissolved in 5% FA and injected onto a 125-μm-internal diameter fused silica column packed with Magic C18 AQ material (Michrom Bioresources, Auburn, Calif.). Peptides were separated using a two-solvent system: solvent A (0.125% FA and 3% ACN in H2O), solvent B (0.125% FA in ACN) over 32 min gradient, and eluting peptides were directly analyzed using an LTQ-Orbitrap mass spectrometer (Thermo Scientific, San Jose, Calif.) equipped with the electron transfer dissociation option. […]

[2] = target: T1, recombinant RSK1 (Homo sapiens, UniProt Q15418); test: In vitro peptide phosphorylation by purified RSK; assay type: biochemical; conditions: 100 μM peptide, individually reacted
T1 construct: 90 kDa ribosomal S6 kinases 1 (RSK1, 1-735); purchased Cell Signaling Technology (Danvers, Mass.)
T1 sequence (Q15418 whole entry): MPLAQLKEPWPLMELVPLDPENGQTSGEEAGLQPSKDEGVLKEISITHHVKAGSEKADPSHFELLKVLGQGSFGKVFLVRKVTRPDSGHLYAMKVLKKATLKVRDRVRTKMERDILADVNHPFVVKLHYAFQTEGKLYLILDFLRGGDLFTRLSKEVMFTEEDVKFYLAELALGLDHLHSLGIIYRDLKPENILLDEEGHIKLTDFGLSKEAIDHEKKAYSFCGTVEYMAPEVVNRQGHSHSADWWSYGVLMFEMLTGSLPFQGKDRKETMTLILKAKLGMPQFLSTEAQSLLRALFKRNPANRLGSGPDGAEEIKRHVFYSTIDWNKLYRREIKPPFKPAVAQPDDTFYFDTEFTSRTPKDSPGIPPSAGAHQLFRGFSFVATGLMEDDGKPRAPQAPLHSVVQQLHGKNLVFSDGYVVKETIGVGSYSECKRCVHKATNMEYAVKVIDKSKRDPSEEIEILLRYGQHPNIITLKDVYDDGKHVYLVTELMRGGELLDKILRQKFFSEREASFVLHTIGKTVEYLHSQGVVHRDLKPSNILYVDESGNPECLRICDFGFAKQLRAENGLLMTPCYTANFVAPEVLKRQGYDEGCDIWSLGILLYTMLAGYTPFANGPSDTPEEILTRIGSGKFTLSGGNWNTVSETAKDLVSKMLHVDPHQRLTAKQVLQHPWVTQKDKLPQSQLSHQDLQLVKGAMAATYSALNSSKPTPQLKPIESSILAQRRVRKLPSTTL
Description: Reaction mixture was supplemented with 0.1% BSA. Other conditions were the same as in FIG. 10A.
Purified human active kinases of Akt1 (full length), extracellular signal-regulated kinase 1 (ERK1, 1-379), mitogen-activated protein kinase kinase 1 (MEK1, 1-393), 90 kDa ribosomal S6 kinases 1 (RSK1, 1-735), cAMP-dependent protein kinase (PKA) catalytic subunit-α (PKA Cα, 1-351), protein kinase Cα (PKCα, full length), epidermal growth factor (EGF) receptor (EGFR, 672-1210), platelet-derived growth factor (PDGF) receptor α (PDGFRα, 550-1090), vascular endothelial growth factor (VEGF) receptor 1 (VEGFR1 784-1338), Src (full length), casein kinase 2 (CK2, full length), Aurora A (1-403), AMP-activated protein kinase α1β1γ1 (AMPK α1β1γ1, full length), glycogen synthase kinase-3α (GSK-3α, 1-483) and MAP/microtubule affinity-regulating kinase 1 (MARK 1, full length) were obtained from Cell Signaling Technology (Danvers, Mass.). Cdc2/cyclin B1 (full length) and insulin-like growth factor (IGF)-I receptor (IGFIR, 959-1367) were obtained from Upstate (Temecula, Calif.).
as §1, with “Each substrate peptide (250 pmol) was mixed to a final concentration of 5 μM in the 50 μL reaction mixture.” left out
It was observed that basal phosphorylation of these peptides was not affected by knockdown and likely was the result of remaining RSK isoforms or other basophilic kinases (FIG. 5C).

“RIRTQSFSLQPFR (The sequence was designed and synthesized) [F6]” was tested, and the “phosphorylation in response to insulin stimulation” value [1] was “increased phosphorylation” and the “phosphorylation by RSK” value [2] was “strong phosphorylation”.
